The values below come from publication PMC8038090, “Xanthine Oxidase Inhibitors from Filipendula ulmaria (L.) Maxim. and Their Efficient Detections by HPTLC and HPLC Analyses” (Molecules, 2021).

Converted amounts (≈) assume the structure as drawn. “Also recorded” adds a separate entry of the source. Where two headings read alike, the source gives them in different places.

In data set [1] the test system is xanthine oxidase (XO). Description: HPTLC xanthine oxidase bioautography (NBT/formazan). Conditions: for XO inhibitory activity on HPTLC bioautography plate (spot intensity): white/yellow spots on purple background, 1 mg/mL, 20 µL applied. Type of data set: biochemical. The procedure:
As the spectrophotometer analysis monitors the production of uric acid from xanthine, the HPTLC method measures the production of the superoxide radical anion formed during the regeneration of an enzyme. In contact with superoxide radical anion, the Nitro Blue Tetrazolium (NBT) is transformed in formazan (purple), inducing a change in the color of the reaction mixture. The inhibitors will appear as white/yellow spots under a purple background.
The samples were prepared by dissolving 1 mg of each fraction in 1 mL of methanol, and 20 µL was applied on 8 mm bands, 8 mm from the lower edge of the plate. The mobile phase was a mixture of ethyl acetate, dichloromethane, formic acid, acetic acid, and water (100:25:10:10:11). […] After development, plates were dried under a stream of cool air for 10 min.
The XO inhibition assay was conducted using the method developed by Ramallo [32], with slight modifications. After migration, the plates were dipped into a solution of PBS 120 mM containing xanthine oxidase (0.1 U/mL), EDTA (1 mM), and NBT (1 mM) in a sterilizer, at 37 °C in the dark for 30 min. The plates were then dipped into a solution of PBS 120 mM containing xanthine (1.5 mM) in a sterilizer, at 37 °C for 30 min in the dark.

The test system of data set [2] is xanthine oxidase (XO). Description: Measurement of XO interaction by HPLC (crude extract incubated with and without enzyme). Type of data set: binding. Conditions: crude extract 1 mg/mL, XO 0.1 U/mL, 1 h; for Interaction with XO (HPLC subtraction, negative peaks): HPLC-UV 254 nm; for XO binding (%): estimated from difference of peak area with and without XO. The procedure:
The identification of bioactive compounds which form in a complex mixture by rapid screening, without the requirement of purification, is a challenging approach. […] Based on the method described by Wang, we incubated the enzyme with the crude extract and carried out HPLC analyses on the filtrate after centrifugation.
The measurement of XO interaction was conducted according to Zhang’s procedure, with some modifications. The assay mixture contained 10 mL of crude extract at 1 mg/mL in water, and 200 µL of xanthine oxidase (final concentration of 0.1 U/mL), or 200 µL of water. Prior to the HPLC analysis, the solution was mixed for one hour at room temperature in the dark. After one hour, the mixture was centrifuged at 4500× g […] and supernatant was filtered through a 0.45 µm PTFE filter. […] Potential inhibitors were identified after subtraction of the chromatogram obtained from the assay with and without XO (negative peaks).

The target in data set [3] is xanthine oxidase (XO) (Bos taurus, UniProt P80457). The experiment in a line: Xanthine oxidase inhibitory activity by UV spectroscopy (uric acid formation at 293 nm). Type of data set: biochemical. On the procedure: Inhibition of XO was conducted according to the procedure described by Sowndhararajan et al., with slight modifications. […] Prior to the addition of XO solution in the mixture, all the components were incubated at 25 °C in the dark for 5 min. […] The enzymatic activity assay without extract was defined as maximum relative activity, and the percentage of inhibition was calculated according to the method of Yan et al. IC50 values were determined using linear regression and are expressed in µg/mL of plant extract ± standard deviation. All measurements were performed in triplicate (n = 3).
xanthine oxidase (XO) (Bos taurus, UniProt P80457), sequence (P80457 2-1332 limits assumed): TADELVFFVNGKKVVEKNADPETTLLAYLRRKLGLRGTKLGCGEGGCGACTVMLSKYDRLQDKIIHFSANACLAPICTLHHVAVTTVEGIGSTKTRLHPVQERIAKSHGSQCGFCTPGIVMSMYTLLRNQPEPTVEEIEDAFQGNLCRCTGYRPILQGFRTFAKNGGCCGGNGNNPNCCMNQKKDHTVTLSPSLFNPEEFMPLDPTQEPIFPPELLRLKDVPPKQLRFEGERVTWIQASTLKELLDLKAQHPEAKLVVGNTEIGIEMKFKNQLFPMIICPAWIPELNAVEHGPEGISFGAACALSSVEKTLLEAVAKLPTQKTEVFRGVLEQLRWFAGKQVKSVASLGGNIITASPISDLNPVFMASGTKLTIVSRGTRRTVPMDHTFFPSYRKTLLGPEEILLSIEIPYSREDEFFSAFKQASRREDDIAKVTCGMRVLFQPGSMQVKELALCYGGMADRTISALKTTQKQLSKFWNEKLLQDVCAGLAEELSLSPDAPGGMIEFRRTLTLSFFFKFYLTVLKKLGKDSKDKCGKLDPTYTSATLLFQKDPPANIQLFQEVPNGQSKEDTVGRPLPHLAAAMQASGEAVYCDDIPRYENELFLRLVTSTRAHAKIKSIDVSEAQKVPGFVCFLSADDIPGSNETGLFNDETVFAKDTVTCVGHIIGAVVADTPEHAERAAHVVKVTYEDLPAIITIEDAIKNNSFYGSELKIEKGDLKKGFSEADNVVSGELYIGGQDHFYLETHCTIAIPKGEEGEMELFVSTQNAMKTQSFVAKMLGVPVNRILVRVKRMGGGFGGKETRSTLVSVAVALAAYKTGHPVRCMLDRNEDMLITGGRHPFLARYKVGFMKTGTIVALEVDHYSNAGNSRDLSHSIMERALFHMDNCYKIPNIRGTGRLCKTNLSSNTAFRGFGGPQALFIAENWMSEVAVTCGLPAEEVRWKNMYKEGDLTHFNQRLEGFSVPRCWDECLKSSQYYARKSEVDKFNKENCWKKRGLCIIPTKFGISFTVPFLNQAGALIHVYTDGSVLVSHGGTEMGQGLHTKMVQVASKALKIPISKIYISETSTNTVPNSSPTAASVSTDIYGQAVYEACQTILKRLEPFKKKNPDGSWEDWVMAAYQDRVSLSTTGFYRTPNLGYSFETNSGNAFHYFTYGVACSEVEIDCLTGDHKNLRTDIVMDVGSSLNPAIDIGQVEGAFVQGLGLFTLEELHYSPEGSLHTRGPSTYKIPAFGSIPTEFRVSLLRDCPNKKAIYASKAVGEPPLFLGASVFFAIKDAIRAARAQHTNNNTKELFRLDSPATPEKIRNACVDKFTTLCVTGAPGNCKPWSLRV

Data set [4] in a line: Solubility for the XO assay. Format: physicochemical. Conditions: in water or DMSO.
In data set [5] the target is xanthine oxidase (XO). Details: method as in doi:10.5539/jfr.v1n3p257, doi:10.1016/j.bjp.2015.08.013. Conditions: described to possess no inhibitory activity; read-out: IC50, XO inhibition (described); cited from earlier work.
Data set [6] is described as follows: Stability in solution for the XO assay. Type of data set: physicochemical.
The mark [7] stands for this setting: UV spectroscopy, xanthine 56 µM, XO 0.01 U/mL, 25 °C, n = 3, read-out: IC50 (µM), XO inhibition.
The mark [8] stands for this setting: UV spectroscopy, xanthine 56 µM, XO 0.01 U/mL, 25 °C, n = 3, read-out: IC50 (µg/mL), XO inhibition (converted).

`O=c1c(O)c(-c2ccc(O)c(O)c2)oc2cc(O)cc(O)c12` [Quercetin]: the “XO inhibitory activity on HPTLC bioautography plate (spot intensity)” value (“XO inhibitory activity … (spot intensity)” for short) in the data set with xanthine oxidase (XO) [1] was “quite strong inhibitors; also recorded: strong interactions”. Moreover, in the data set on xanthine oxidase (XO) [2], the “Interaction with XO (HPLC subtraction, negative peaks)” value (“Interaction with XO” below) is “seem to interact” and the “XO binding (%)” value is on record as ~50%.

On to `O=c1c(O)c(-c2ccc(O[C@@H]3O[C@H](CO)[C@@H](O)[C@H](O)[C@H]3O)c(O)c2)oc2cc(O)cc(O)c12` [Spiraeoside], for which the “XO inhibitory activity … (spot intensity)” value in the data set on xanthine oxidase (XO) [1] is listed as “quite strong inhibitors; also recorded: strong interactions”. Besides, the IC50 on xanthine oxidase (XO) [3] (setting [7]) amounted to 0.66 ± 0.02 µM. For the same compound, the IC50 on xanthine oxidase (XO) [3] (setting [8]) was 0.668 µM. Further, the “XO inhibitory activity relative to allopurinol” value at xanthine oxidase (XO) [3] (activity higher than allopurinol) was “around 25 times”. In addition, in the data set on xanthine oxidase (XO) [2], the “Interaction with XO” value was “significant interactions” and the “XO binding (%)” value is recorded as “around 30%”.

As for `O=c1c(O)c(-c2ccc(O)cc2)oc2cc(O)cc(O)c12` [Kaempferol], the “XO inhibitory activity … (spot intensity)” value with xanthine oxidase (XO) [1] was “quite strong inhibitors; also recorded: strong interactions”. Also, the “Interaction with XO” value in the data set with xanthine oxidase (XO) [2] is “seem to interact”.

As to `O=c1oc2c(O)c(O)cc3c(=O)oc4c(O)c(O)cc1c4c23` [Ellagic acid], in the data set on xanthine oxidase (XO) [1], the “Stability on the HPTLC plate” value is “decompose on the plate” and the “XO inhibitory activity … (spot intensity)” value is on record as “weak activity”. The Solubility result in data set [4] is given as “not soluble”.

As to `O=C(O)c1cc(O)c(O)c(O)c1` [Gallic acid], the IC50 against xanthine oxidase (XO) [3] is > 50 µM; at xanthine oxidase (XO) [3] (setting [8]), > 1760 µM; at xanthine oxidase (XO) [5], > 100 µM.

For the compound `O=c1c(O[C@@H]2O[C@H](CO)[C@H](O)[C@H](O)[C@H]2O)c(-c2ccc(O)c(O)c2)oc2cc(O)cc(O)c12` [Hyperoside], the “XO inhibitory activity … (spot intensity)” value with xanthine oxidase (XO) [1] is recorded as “weak interactions”. Further, the IC50 at xanthine oxidase (XO) [3] (setting [7]) is > 50 µM; at xanthine oxidase (XO) [3] (setting [8]), > 215 µM. For the same compound, in the data set with xanthine oxidase (XO) [2], the “Interaction with XO” value is “did not seem to interact”.

As for `O=C(O[C@@H]1O[C@@H]2COC(=O)c3cc(Oc4c(C(=O)O[C@@H]5O[C@@H]6COC(=O)c7cc(O)c(O)c(O)c7-c7c(cc(O)c(O)c7O)C(=O)O[C@H]6[C@H](OC(=O)c6cc(O)c(O)c(O)c6)[C@H]5OC(=O)c5cc(O)c(O)c(O)c5)cc(O)c(O)c4O)c(O)c(O)c3-c3c(cc(O)c(O)c3O)C(=O)O[C@H]2[C@H](OC(=O)c2cc(O)c(O)c(O)c2)[C@H]1OC(=O)c1cc(O)c(O)c(O)c1)c1cc(O)c(O)c(O)c1` [Rugosin D], in the data set with xanthine oxidase (XO) [1], the “XO inhibitory activity … (spot intensity)” value was “strong interactions”. The “IC50 (µg/mL), XO inhibition” value against xanthine oxidase (XO) [3] (UV spectroscopy, xanthine 56 µM, XO 0.01 U/mL, 25 °C, n = 3) is reported as 67.0 ± 1.1 µg/mL (≈ 35.7 µM). Also, the IC50 on xanthine oxidase (XO) [3] (setting [7]) stood at 35.7 ± 2.1 µM. In addition, in the data set on xanthine oxidase (XO) [2], the “Interaction with XO” value is listed as “strongest interaction” and the “XO binding (%)” value was “around 60%”.

Regarding `O=C(O)c1ccccc1O` [Salicylic acid], the IC50 was > 50 µM at xanthine oxidase (XO) [3] (setting [7]), > 2170 µM at xanthine oxidase (XO) [3] (setting [8]) and > 100 µM on xanthine oxidase (XO) [5].

Regarding `O=c1c(O)c(-c2ccc(O[C@@H]3O[C@H](CO)[C@@H](O)[C@H](O)[C@H]3O)cc2)oc2cc(O)cc(O)c12` [Kaempferol-4′-O-glucoside], the “Interaction with XO” value in the data set on xanthine oxidase (XO) [2] was “significant interactions”.

For the compound `O=C(OC1O[C@@H]2COC(=O)c3cc(O)c(O)c(O)c3-c3c(cc(O)c(O)c3O)C(=O)O[C@H]2[C@H](OC(=O)c2cc(O)c(O)c(O)c2)[C@H]1OC(=O)c1cc(O)c(O)c(O)c1)c1cc(O)c(O)c(O)c1` (stereo partly drawn) [Tellimagrandin II], in data set [6], the Stability in solution result is on record as “decomposed in the solution”. Also, in the data set on xanthine oxidase (XO) [1], the “Stability on the HPTLC plate” value was “decompose on the plate” and the “XO inhibitory activity … (spot intensity)” value is on record as “weak activity”. In the data set with xanthine oxidase (XO) [2], the “Interaction with XO” value is listed as “strongest interaction” and the “XO binding (%)” value is “around 30%”.

Take `O=c1c(O[C@@H]2O[C@H](CO)[C@@H](O)[C@H](O)[C@H]2O)c(-c2ccc(O)c(O)c2)oc2cc(O)cc(O)c12` [Isoquercitrin]: the “XO inhibitory activity … (spot intensity)” value in the data set with xanthine oxidase (XO) [1] was “weak interactions”. The IC50 at xanthine oxidase (XO) [3] (setting [7]) is > 50 µM; on xanthine oxidase (XO) [3] (setting [8]), > 215 µM. Moreover, the “Interaction with XO” value in the data set with xanthine oxidase (XO) [2] is given as “did not seem to interact”.
